Patent US11453667B2, “Pyridone-pyrimidine derivative acting as KRASG12C mutein inhibitor” (MEDSHINE DISCOVERY INC., priority 2018, dated 2022)

How the values were obtained:
[1] = tested on: human non-small cell lung cancer NCI-H358; test: In vivo drug efficacy test (2): subcutaneous xenograft tumor model; design: species or system BALB/c nude mice; settings: 100 mg/kg (0-6 days) + 50 mg/kg (7-20 days)
Experimental: (§1) To evaluate the in vivo efficacy of the test compounds in a subcutaneous xenograft tumor model of human non-small cell lung cancer NCI-H358.
BALB/c nude mice, female, 6-8 weeks old, weighing 18-21 grams. A total of 100 were required. They were provided by Shanghai Lingchang Experimental Animal Co., Ltd ( ? ? ). NCI-H358 tumor cells were resuspended in PBS to prepare 0.1 mL (5×10^6) of cell suspension, which was inoculated subcutaneously on the right back of each mouse (5×10^6/mouse) to wait for tumor growth. When the average tumor volume reached about 150-200 mm^3, randomized grouping and administration were performed, and the administration dose was shown in Table 6. The diameter of the tumor was measured with vernier calipers twice a week. The formula for calculating the tumor volume is: V=0.5a×b^2, wherein a and b represent the long and short diameters of the tumor, respectively. The tumor suppressive effect of the compounds was evaluated by TGI (%). TGI (%) reflects the tumor growth inhibition rate. Calculation of TGI (%): TGI (%)=[(1−(average tumor volume at the end of administration in a treatment group−average tumor volume at the beginning of administration in the treatment group))/(average tumor volume at the end of treatment in the solvent control group−average tumor volume at the beginning of treatment in the solvent control group)]×100%.

[2] = tested on: wild-type A375 human malignant melanoma cells; test: Cell experiment: anti-proliferative activity, CellTiter-Glo, A375; format: cell-based; settings: Homo sapiens, A-375, 120 h, 5 days culture
Experimental: (§2) This experiment is intended to verify that the compounds of the present invention have an inhibitory effect on the proliferation of NCI-H358 human non-small cell lung cancer cells with KRAS G12C mutation, MIA PaCa2 human pancreatic cancer cells with KRAS G12C mutation and wild-type A375 human malignant melanoma cells.
(§3) 40 μl of phosphate buffer was added to the peripheral wells of three 384-well microplates respectively, and 40 μl of cell suspension to be tested was added to the other wells of each plate respectively (plate 1: NCI-H358 cell suspension containing 500 NCI-H358 cells; plate 2: MIAPaCa2 cell suspension containing 300 MIAPaCa2 cells; plate 3: A375 cell suspension containing 300 A375 cells). The three cell plates were then placed in a carbon dioxide incubator and incubated overnight. Echo was used to perform a 3-fold gradient dilution of the compounds to be tested, and each compound was diluted with 10 concentration gradients (diluted from 50 μM to 0.003 μM), 100 nl of which was respectively added to the corresponding wells of the cell plates; after dosing, 40 μL of phosphate buffer was added to each well of rows A and P and columns 1 and 24, and then the cell plates were put back to the carbon dioxide incubator for culturing for 5 days. 20 μl of Promega CellTiter-Glo reagent per well was added to the cell plates, which was shaken at room temperature for 10 minutes in the dark to stabilize the luminescence signal. A PerkinElmer Envision multi-label analyzer was used for reading.
(§4) Data analysis: IC50 results were analyzed by GraphPad Prism 5.0 software […].

[3] = tested on: human non-small cell lung cancer NCI-H358; test: In vivo drug efficacy test (4): subcutaneous xenograft tumor model; design: species or system BALB/c nude mice; settings: for TGI: day 27
Experimental: as §1
BALB/c nude mice, female, 6-8 weeks old, weighing 18-20 grams. A total of 40 were required. They were provided by Shanghai Lingchang Experimental Animal Co., Ltd ( ? ? ). NCI-H358 tumor cells were resuspended in PBS to prepare a cell suspension with a density of 5×10^7/mL, which was inoculated subcutaneously on the right back of each mouse (0.1 mL, 5×10^6/mouse) to wait for tumor growth. When the average tumor volume reached about 166 mm^3, randomized grouping and administration were performed, and the administration dose was shown in Table 8. The diameter of the tumor was measured with vernier calipers twice a week.
The formula for calculating the tumor volume is: V=0.5a×b^2, wherein a and b represent the long and short diameters of the tumor, respectively. The tumor suppressive effect of the compounds was evaluated by TGI (%). TGI (%) reflects the tumor growth inhibition rate. Calculation of TGI (%): TGI (%)=[(1−(average tumor volume at the end of administration in a treatment group−average tumor volume at the beginning of administration in the treatment group))/(average tumor volume at the end of treatment in the solvent control group−average tumor volume at the beginning of treatment in the solvent control group)]×100%.

[4] = tested on: NCI-H358 human non-small cell lung cancer cells with KRAS G12C mutation; test: Cell experiment: anti-proliferative activity, CellTiter-Glo, NCI-H358; format: cell-based; settings: Homo sapiens, NCI-H358, 120 h, 5 days culture
Experimental: as §2, §3, §4

[5] = 50 mg/kg (0-2 days) + 1.5 mg/kg (3-27 days)

C=CC(=O)N1CCN(c2ncnc3c(=O)n(-c4c(N)c(Cl)cc(Cl)c4F)c(C(F)(F)F)cc23)CC1 [Example 49]
Tumor volume (day 20) [1]: 30 mm^3
TGI ([1]; day 20): 125.66%
IC50 [2]: 7.32 µM
Tumor volume (day 27) ([3]; 5 mg/kg): 117 mm^3
TGI ([3]; 5 mg/kg): 107.25%
Tumor volume (day 27) ([3]; 15 mg/kg): 56 mm^3
TGI ([3]; 15 mg/kg): 116.27%
Tumor volume (day 27) [3, 5]: 295 mm^3
TGI [3, 5]: 80.92%
IC50 [4]: 0.05 µM
